The target in one test is T1, KRas^G12D (Homo sapiens, UniProt P01116, G12D).
T1 construct: Biotinylated KRas (corresponding to amino acids 1-169, produced at Accelegan Inc.); biotin (biotinylated); purchased Accelegan Inc
Kind of test: KRas binding assay (TR-FRET tracer displacement), KRas G12D.

The target of a further test is T2, KRas^G12R (Homo sapiens, UniProt P01116, G12R).
T2 construct: Biotinylated KRas (corresponding to amino acids 1-169, produced at Accelegan Inc.); biotin (biotinylated); purchased Accelegan Inc
T2 sequence (P01116 1-169 isoform P01116-2 G12R): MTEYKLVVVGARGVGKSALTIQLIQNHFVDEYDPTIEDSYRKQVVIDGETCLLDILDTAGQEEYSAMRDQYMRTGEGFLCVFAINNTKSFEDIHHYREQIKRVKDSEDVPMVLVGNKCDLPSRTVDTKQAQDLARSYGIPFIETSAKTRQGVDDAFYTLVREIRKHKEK
Kind of test: KRas binding assay (TR-FRET tracer displacement), KRas G12R.

The target in a further test is T3, KRas^G12V (Homo sapiens, UniProt P01116, G12V).
T3 construct: Biotinylated KRas (corresponding to amino acids 1-169, produced at Accelegan Inc.); biotin (biotinylated); purchased Accelegan Inc
T3 sequence (P01116 1-169 isoform P01116-2 G12V): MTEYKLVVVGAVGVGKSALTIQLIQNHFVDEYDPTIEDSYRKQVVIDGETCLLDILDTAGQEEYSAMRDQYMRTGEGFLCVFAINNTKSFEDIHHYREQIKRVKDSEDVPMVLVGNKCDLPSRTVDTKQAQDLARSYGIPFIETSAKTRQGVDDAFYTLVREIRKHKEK
The test is described as follows: KRas binding assay (TR-FRET tracer displacement), KRas G12V.

Test [1] relates to KRas-mediated phosphorylation of ERK in MKN1 cells. Kind of test: Inhibition of KRas-mediated phosphorylation of ERK (Cisbio HTRF pERK), MKN1 cells. Particulars: Homo sapiens, MKN-1. It is filed as cell-based. A digest of the protocol: (§1)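 Phospho-ERK is quantified by HTRF with the Advanced pERK kit. Cells go in at 6,000/well in RPMI plus 10% FBS overnight at 37° C. under 5% CO2, with a 4-hour covered room-temperature incubation ahead of the read.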

The test system of test [2] is KRas-mediated phosphorylation of ERK in PSN1 cells. The test is described as follows: Inhibition of KRas-mediated phosphorylation of ERK (Cisbio HTRF pERK), PSN1 cells. The format is cell-based. Particulars: Homo sapiens. A digest of the protocol: as §1
Test [3] relates to KRas-mediated phosphorylation of ERK in AsPC-1 cells. Kind of test: Inhibition of KRas-mediated phosphorylation of ERK (Cisbio HTRF pERK), AsPC-1 cells. It is filed as cell-based. The note with it: for IC50: HTRF pERK; for inhibition at 0.1 µM: ASPC1, 3 h. The gist of the method: (§2)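 Phosphorylated ERK was quantified by HTRF using d2-conjugate and Cryptate antibodies added to lysates for 2 hrs at room temperature.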

The test system of test [4] is KRas-mediated phosphorylation of ERK in H727 cells. The test is described as follows: Inhibition of KRas-mediated phosphorylation of ERK (Cisbio HTRF pERK), H727 cells. The format is cell-based. The note with it: for IC50: HTRF pERK; for inhibition at 0.1 µM: NCI-H727, 3 h. The gist of the method:
as §2

The subject of test [5] is KRas-mediated phosphorylation of ERK in A549 cells. Kind of test: Inhibition of KRas-mediated phosphorylation of ERK (Cisbio HTRF pERK), A549 cells. It is filed as cell-based. The note with it: for IC50 / inhibition at 0.1 µM: Homo sapiens; for IC50: HTRF pERK; for inhibition at 0.1 µM: A549, 3 h. A digest of the protocol:
(§3)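 Each compound was tested at 10 concentrations, threefold apart with 10 uM the highest, for 3 hrs on 6,000 seeded cells; final DMSO was 0.8% and Trametinib (0.2 uM) served as Min control. Lysed cells were analysed for pERK by HTRF.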

Test [6] deals with KRas-mediated phosphorylation of ERK in H460 cells. Kind of test: Inhibition of KRas-mediated phosphorylation of ERK (Cisbio HTRF pERK), H460 cells. The format is cell-based. Particulars: for IC50 / inhibition at 0.1 µM: Homo sapiens; for IC50: NCI-H460, HTRF pERK; for inhibition at 0.1 µM: NCI-H460, 3 h. A digest of the protocol: as §2
The subject of test [7] is KRas-mediated phosphorylation of ERK in HCT116 cells. The test is described as follows: Inhibition of KRas-mediated phosphorylation of ERK (Cisbio HTRF pERK), HCT116 cells. The format is cell-based. The note with it: for IC50 / inhibition at 0.1 µM: Homo sapiens; for IC50: HCT-116, HTRF pERK; for inhibition at 0.1 µM: HCT-116, 3 h. A digest of the protocol: as §3
Test [8] relates to KRas-mediated phosphorylation of ERK in H358 cells. The test is described as follows: Inhibition of KRas-mediated phosphorylation of ERK (Cisbio HTRF pERK), H358 cells. It is filed as cell-based. Particulars: for IC50 / inhibition at 0.1 µM: Homo sapiens; for IC50: NCI-H358, HTRF pERK; for inhibition at 0.1 µM: NCI-H358, 3 h. A digest of the protocol: as §2
Where [9] appears, read: Homo sapiens, ASPC1, AsPC-1 cells.
[10] abbreviates: Homo sapiens, NCI-H727, H727 cells.
The mark [11] stands for this setting: single point, 100 nM compound, 3 hrs, 0.1 µM.
Setting [12] is: single point, 100 nM compound, 3 hrs.
Setting [13] is: Homo sapiens, single point, 100 nM compound, 3 hrs, AsPC-1 cells.
Where [14] appears, read: Homo sapiens, single point, 100 nM compound, 3 hrs, H727 cells.

T1 sequence (P01116 1-169 isoform P01116-2 G12D): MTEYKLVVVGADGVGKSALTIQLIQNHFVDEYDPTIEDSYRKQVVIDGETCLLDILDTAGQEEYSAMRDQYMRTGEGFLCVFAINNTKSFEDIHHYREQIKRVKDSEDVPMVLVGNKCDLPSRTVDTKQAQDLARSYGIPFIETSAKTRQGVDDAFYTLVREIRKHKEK

Turning to `C[C@@H]1C[C@@H]1c1c(Cl)cc2[nH]ncc2c1-c1ncc2c(N3CCC[C@]4(C3)NC(=O)NC4=O)nc(OCC34CCCN3CCC4)nc2c1F` (atropisomer, axis not shown) [Example 887, (R)-7-(7-((R)-6-chloro-5-((1S,2R)-2-methylcyclopropyl)-1H-indazol-4-yl)-8-fluoro-2-((tetrahydro-1H-pyrrolizin-7a(5H)-yl)methoxy)pyrido[4,3-d]pyrimidin-4-yl)-1,3,7-triazaspiro[4.5]decane-2,4-dione], the IC50 at KRas^G12D is 5 nM; on KRas^G12R, 2 nM; on KRas^G12V, 3 nM; in test [1], 1240 nM; in test [2], over 10000 nM; in test [3] (setting [9]) it was over 10000 nM. Besides, the IC50 in test [4] (setting [10]) is over 10000 nM; in test [5], over 10000 nM; in [6] it was 7040 nM; in [7], over 10000 nM; in [8], 2540 nM.

As for `CCc1c(F)ccc2cc(O)cc(-c3ncc4c(N5CC6CCC(C5)C6C#N)nc(OC[C@@]56CCCN5C[C@H](F)C6)nc4c3F)c12` (single isomer, unassigned) [Example 561], the IC50 on KRas^G12D was 7 nM; at KRas^G12R, under 2 nM; at KRas^G12V, under 2 nM; in test [1], 1 nM; in [2], over 10000 nM; in test [3] (AsPC-1 cells) it was 80 nM. In addition, the IC50 was 13 nM in [4] (H727 cells); 4 nM in [5]; 5 nM in test [6]; 24 nM in [7]; 3 nM in [8]. Further, the “Inhibition (HTRF % at 100 nM) of KRas-mediated Phosphorylation of ERK, AsPC-1” value in test [3] (single point, 100 nM compound, 3 hrs, AsPC-1 cells, 0.1 µM) was determined as 30%. Further, the “Inhibition (HTRF % at 100 nM) of KRas-mediated Phosphorylation of ERK, H727” value in [4] (single point, 100 nM compound, 3 hrs, H727 cells, 0.1 µM) was 74%. The “Inhibition (HTRF % at 100 nM) of KRas-mediated Phosphorylation of ERK, A549” value in test [5] (setting [11]) was determined as 103%. Besides, the “Inhibition (HTRF % at 100 nM) of KRas-mediated Phosphorylation of ERK, H460” value in [6] (setting [11]) was 99%. Further, the “Inhibition (HTRF % at 100 nM) of KRas-mediated Phosphorylation of ERK, HCT116” value in test [7] (setting [11]) turned out to be 63%. For the same compound, the “Inhibition (HTRF % at 100 nM) of KRas-mediated Phosphorylation of ERK, H358” value in [8] (setting [11]) is reported as 99%.

Turning to `CCc1c(F)ccc2cc(O)cc(-c3ncc4c(N5C[C@H]6C[C@@H](C5)C(O)C6O)nc(OC[C@@]56CCCN5C[C@H](F)C6)nc4c3F)c12` (single isomer, unassigned) [Example 570], the half-maximal inhibitory concentration (IC50) at KRas^G12D was 12 nM; at KRas^G12R it was under 2 nM; at KRas^G12V it was 3 nM; in test [1] it was 56 nM; in test [2], over 10000 nM; in test [3] (setting [9]), 1770 nM. In addition, the IC50 in test [4] (setting [10]) was determined as 280 nM; in test [5], 542 nM. For the same compound, the inhibition at 0.1 µM in test [5] (setting [12]) turned out to be 26%; in test [6] (setting [12]), 38%; in [7] (setting [12]), 26%; in test [8] (setting [12]), 69%.

Consider `CCc1c(F)ccc2cc(O)cc(-c3ncc4c(N5CCC(C#N)CC5)nc(OC[C@@]56CCCN5C[C@H](F)C6)nc4c3F)c12` [Example 544, 1-(7-(8-ethyl-7-fluoro-3-hydroxynaphthalen-1-yl)-8-fluoro-2-(((2R,7aS)-2-fluorohexahydro-1H-pyrrolizin-7a-yl)methoxy)pyrido[4,3-d]pyrimidin-4-yl)piperidine-4-carbonitrile], for which the half-maximal inhibitory concentration (IC50) at KRas^G12D is 22 nM; at KRas^G12R, 4 nM; on KRas^G12V, 3 nM; in test [1] it was 25 nM; in test [2], over 10000 nM; in test [3] (setting [9]), 455 nM. In test [4] (setting [10]), this compound had an IC50 of 79 nM. Also, the inhibition at 0.1 µM in test [3] (setting [13]) was -13%; in test [4] (setting [14]), 30%; in test [5] (setting [12]), 59%; in test [6] (setting [12]), 46%; in test [7] (setting [12]), 5%; in test [8] (setting [12]), 67%.

Regarding `CCc1c(F)ccc2cc(O)cc(-c3ncc4c(N5CCCC6(CNC(=O)N6)C5)nc(OC[C@]56CCCN5[C@H](COC(=O)N(C)C)CC6)nc4c3F)c12` (stereo partly drawn) [Example 711, ((3S,7aR)-7a-(((7-(8-ethyl-7-fluoro-3-hydroxynaphthalen-1-yl)-8-fluoro-4-(2-oxo-1,3,7-triazaspiro[4.5]decan-7-yl)pyrido[4,3-d]pyrimidin-2-yl)oxy)methyl)hexahydro-1H-pyrrolizin-3-yl)methyl dimethylcarbamate], the IC50 on KRas^G12D was under 2 nM; on KRas^G12R it was under 2 nM; on KRas^G12V it was under 2 nM; in test [1] it was 21 nM; in test [2] it was 6220 nM; in test [3] (setting [9]), 121 nM. Further, the 50% inhibitory concentration (IC50) in [4] (setting [10]) was found to be 196 nM; in test [6], 109 nM; in test [7], 247 nM. For the same compound, the inhibition at 0.1 µM was 43% in [5] (setting [12]) and 78% in test [8] (setting [12]).

On to `CCc1c(F)ccc2cc(O)cc(-c3ncc4c(N5CCC[C@@](C)(O)C5)nc(OC[C@]56CCCN5[C@H](CNS(=O)(=O)N(C)C)CC6)nc4c3F)c12` [Example 720, N,N-dimethyl-(((3S,7aR)-7a-(((7-(8-ethyl-7-fluoro-3-hydroxynaphthalen-1-yl)-8-fluoro-4-((R)-3-hydroxy-3-methylpiperidin-1-yl)pyrido[4,3-d]pyrimidin-2-yl)oxy)methyl)hexahydro-1H-pyrrolizin-3-yl)methyl)aminosulfonamide], for which the IC50 is under 2 nM on KRas^G12D; under 2 nM at KRas^G12R; under 2 nM at KRas^G12V; 6 nM in [1]; 1760 nM in test [2]; 19 nM in [3] (setting [9]). Moreover, the IC50 in [4] (setting [10]) turned out to be 47 nM. In addition, the inhibition at 0.1 µM in [3] (setting [13]) worked out at 70%; in test [4] (setting [14]) it was 43%; in [5] (setting [12]), 64%; in test [6] (setting [12]), 80%; in [7] (setting [12]) it was 51%; in test [8] (setting [12]) it was 85%.

`C#Cc1c(F)ccc2cc(O)cc(-c3ncc4c(N5CCC[C@@](C)(O)C5)nc(OC[C@]56CCCN5[C@H](COC(=O)N(C)C)CC6)nc4c3F)c12` [Example 753, ((3S,7aR)-7a-(((7-(8-ethynyl-7-fluoro-3-hydroxynaphthalen-1-yl)-8-fluoro-4-((R)-3-hydroxy-3-methylpiperidin-1-yl)pyrido[4,3-d]pyrimidin-2-yl)oxy)methyl)hexahydro-1H-pyrrolizin-3-yl)methyl dimethylcarbamate]: the IC50 was under 2 nM on KRas^G12D; 2 nM at KRas^G12R; under 2 nM at KRas^G12V; 14 nM in test [1]; 3080 nM in [2]; 69 nM in [3] (setting [9]). Further, the IC50 in test [4] (setting [10]) was determined as 83 nM. For the same compound, the inhibition at 0.1 µM in test [5] (setting [12]) stood at 2%; in test [6] (setting [12]), 42%; in test [7] (setting [12]) it was 23%; in test [8] (setting [12]), 76%.

As to `O=C1CC2(CCCN(c3nc(OC[C@@]45CCCN4C[C@H](F)C5)nc4c(F)c(-c5cc(O)cc6ccc(F)c(Cl)c56)ncc34)C2)C(=O)N1` (stereo partly drawn) [Example 774, 7-(7-(8-chloro-7-fluoro-3-hydroxynaphthalen-1-yl)-8-fluoro-2-(((2R,7aS)-2-fluorohexahydro-1H-pyrrolizin-7a-yl)methoxy)pyrido[4,3-d]pyrimidin-4-yl)-2,7-diazaspiro[4.5]decane-1,3-dione], the concentration for half-maximal inhibition (IC50) on KRas^G12D was 2 nM; on KRas^G12R it was under 2 nM; on KRas^G12V it was under 2 nM; in test [1] it was 123 nM; in test [2], 2340 nM; in [3] (setting [9]), 852 nM. In addition, the IC50 in [4] (setting [10]) was found to be 138 nM; in [5] it was 924 nM; in test [6], 434 nM; in test [7] it was 506 nM; in test [8], 121 nM.
